Results from PMC12624794, “Mechanism of inhibition of acid-mediated transthyretin aggregation by designed peptides” (The Journal of Biological Chemistry, 2025).

Assays:
[1] = target: T1, TTR^F (C10S-trifluoroacetyl-S85C TTR) (Homo sapiens, UniProt P02766, C30S/S105C); test: Real-time 19F-NMR aggregation kinetics at 310 K, pH 4.4 (three-state model); type: biochemical; details: 1 μM peptide; pH 4.4, 310 K
T1 construct: made in house
Procedure: At acidic pH, tetramer dissociation is favored, the misfolding of the monomeric intermediate is facilitated, and the downhill aggregation is accelerated ([1]). We used a previously reported ^19F-labeled TTR construct, C10S-trifluoroacetyl-S85C (denoted as TTR^F), to quantify TTR aggregation kinetics using real-time ^19F-NMR. […] To quantify how the presence of peptides alters TTR aggregation kinetics, we added 1 μM of each TabH2 and TabF2 as well as 1 μM ffTAD1 to 2.5 μM TTR^F (tetramer concentration) at pH 4.4 and 310 K and monitored time-dependent population kinetics for tetramer, monomer, and NMR-invisible aggregates (Fig. 3, A and B). […]
To gain kinetic insights into the aggregation pathway, we fit the time-dependent aggregation data of TTR^F using a previously reported three-state kinetic model, tetramer ↔ monomer ↔ aggregate ([18]), where tetramer and monomer are NMR-visible, and aggregates are NMR-invisible. […] Using this model, fits of the time-dependent population changes determined from peak areas yield four first-order apparent rates. […]
^19F-NMR spectra were acquired using Bruker Avance 600 or Avance 700 MHz spectrometers as previously described ([18]). […] Weighted average chemical shift perturbations (CSPs) for backbone amides were calculated using (Δδ^1H)^2+(Δδ^15N/5)^2 , where Δ δ means chemical shift differences for either ^1H or ^15N with and without peptides.

[2] = system: patients with TTR amyloidosis; details: TTR amyloidosis diagnosed at a later stage; cited from earlier work
Description: (§1) However, the efficacy of tafamidis is reduced for patients with TTR amyloidosis diagnosed at a later stage, when severe organ damage caused by TTR aggregates cannot be reversed ([12]).

[3] = system: TTR tetramer; details: cited from earlier work
Description: as §1

[4] = system: seeded TTR aggregation; details: extracted amyloidogenic fibrils from patients as seeds, in vitro; cited from earlier work

Structure (SMILES) | reduction of steady-state population of NMR-invisible aggregates vs TTR^F-only control [1] [%] | efficacy in late-diagnosed patients [2] | binding to TTR tetramer [3] | effect on tetramer dissociation ([3]; stabilization of the tetramer) | inhibition of seeded TTR aggregation [4]
CC(C)[C@H](NC(=O)[C@H](C)NC(=O)[C@H](Cc1ccc(O)cc1)NC(=O)[C@H](CO)NC(=O)[C@@H](NC(=O)[C@@H]1CCCN1C(=O)[C@H](CC(N)=O)NC(=O)[C@@H](NC(=O)[C@@H](NC(=O)[C@H](Cc1ccc(O)cc1)NC(=O)[C@H](CO)NC(=O)[C@H](CCCNC(=N)N)NC(=O)[C@H](CCCNC(=N)N)NC(=O)[C@H](CCCNC(=N)N)NC(=O)[C@H](CCCNC(=N)N)NC(=O)[C@H](CCC(=O)O)NC(=O)[C@@H](NC(=O)[C@H](CO)NC(=O)CNC(=O)CNC(=O)CNC(=O)[C@H](CCC(=O)O)NC(=O)[C@@H](NC(=O)[C@H](Cc1ccccc1)NC(=O)[C@H](CCC(=O)O)NC(=O)[C@@H](NC(=O)[C@H](Cc1ccccc1)NC(=O)[C@@H]1CCCN1C(=O)[C@H](Cc1c[nH]cn1)NC(=O)[C@H](C)NC(=O)[C@@H](NC(=O)[C@H](Cc1c[nH]cn1)NC(=O)[C@H](CCCNC(=N)N)NC(=O)[C@H](CCCNC(=N)N)NC(=O)[C@H](CCCNC(=N)N)NC(=O)[C@H](CCCNC(=N)N)NC(=O)[C@H](Cc1c[nH]cn1)NC(=O)[C@H](Cc1c[nH]cn1)NC(=O)[C@H](Cc1c[nH]cn1)NC(=O)[C@H](Cc1c[nH]cn1)NC(=O)[C@H](Cc1c[nH]cn1)NC(=O)[C@@H](N)Cc1c[nH]cn1)C(C)C)C(C)C)[C@@H](C)O)[C@@H](C)O)C(C)C)[C@@H](C)O)[C@@H](C)O)C(=O)N[C@H](C(=O)O)[C@@H](C)O [ffTAD1] | ~8 |  |  |  | 
O=C(O)c1ccc2nc(-c3cc(Cl)cc(Cl)c3)oc2c1 [Tafamidis] |  | reduced | binds to the central cavity of the TTR tetramer | suppresses dissociation to monomers | does not effectively inhibit seeded TTR aggregation
